Assay results published in patent EP1721601A1, “Use of taurine for enhancing lipid synthesis in the epidermis” (Henkel Kommanditgesellschaft auf Aktien, priority 2005, dated 2006).
“Also recorded” adds a separate entry of the source.

Legend:
Epidermismodelle [1] = assay: Epidermal synthesis of barrier lipids in epidermis models; type: cell-based
Description: Epidermismodelle wurden 12 Tage lang kultiviert. Nach 12 Tagen (t = 0) wurden die individuell entwickelten sogenannten Barrierelipide (Ceramide, Cholesterol, Fettsäuren, Cholesterolsulfate und Cholesterolester) quantifiziert. Anschließend wurde ein Teil der Epidermismodelle 5 Tage lang ohne Zusatz von Taurin weiterkultiviert. Ein anderer Teil der Epidermismodelle wurde 5 Tage lang […] Zusatz von 0,3 mM Taurin weiterkultiviert. Nach insgesamt 17 Tagen Kultivierungsdauer (t = 5) wurden erneut die Barrierelipide quantifiziert. […] Die in Tab. 3 gezeigten Unterschiede zu t = 5 waren statistisch signifikant (p<0,05). Tabelle 3: Einfluss von Taurin auf die epidermale Synthese von Barrierelipiden (Angaben der Menge an Barrierelipiden in Gew.-%, bezogen auf den Gesamtlipidgehalt der Epidermismodelle, Mittelwerte aus n = 4 Messungen (± Standardabweichung))

Prostaglandin E2 (PGE2) = assay: Irritation markers in vitro: PGE2 release of SDS-damaged epidermis models; type: cell-based; settings: for PGE2-Freisetzung: 1 h 0,18% SDS, rinsed, then 24 h topical emulsion (C: 0.1 Gew.-% Triamcinolonacetonid; E: 1 Gew.-% Taurin; B: no further treatment), mean +/- SEM, n=3, unbehandelt 0,84, Vehikel 1,40
Description: (§1) Anschließend wurden die Epidermismodelle abgespült und für weitere 24h unter topischer Applikation folgender Emulsionen inkubiert: C: Kortikoid-ratiopharm® Creme (0.1 Gew.-% Triamcinolonacetonid); D: 1,5 Gew.-% Behenylalkohol + 2,75 Gew.-% Arachidylalkohol; E: 1,5 Gew.-% Behenylalkohol + 2,75 Gew.-% Arachidylalkohol +1 Gew.-% Taurin. […] Die Daten repräsentieren die Mittelwerte +/-SEM (n=3).

Epidermismodelle [2] = assay: Irritation markers in vitro: viability and LDH release of SDS-damaged epidermis models; type: cell-based; settings: for LDH-Freisetzung / Vitalität: 1 h 0,18% SDS, rinsed, then 24 h topical emulsion (C: 0.1 Gew.-% Triamcinolonacetonid; E: 1 Gew.-% Taurin; B: no further treatment), mean +/- SEM, n=3; for LDH-Freisetzung: unbehandelt 0,22, Vehikel 1,95; for Vitalität: unbehandelt 100, Vehikel 66
Description: as §1

[3] = test system: epidermale Barrierefunktion; assay: Epidermal barrier function (TEWL) after repetitive SDS damage in vivo
Description: Anschließend wurden Öl-in-Wasser-Emulsionen mit 1,5 Gew.-% Behenylalkohol und 2,75 Gew.-% Arachidylalkohol (VAR1: 0 Gew.-% Taurin; VAR2: 1 Gew.-% Taurin) appliziert, oder die Haut verblieb unbehandelt (VAR3). Diese Behandlung wurde zweimal täglich an 5 Tagen durchgeführt. Der transepidermale Wasserverlust (TEWL) wurde jeweils vor der SDS-Schädigung mit einem […] (Courage & Khazaka, Köln, Germany) bestimmt. Die Daten wurden auf die t0-Werte normiert und ein dimensionsloser Wert "area under the curve" errechnet (siehe Tabelle 1). Die statistische Analyse der Daten basiert auf dem gepaarten Wilcoxon-Test. Die Daten repräsentieren die Mittelwerte (n=18). Tab. 2: Einfluss von Taurin auf Irritationsmarker in vitro

[4] = test system: Interleukin 1-alpha (IL-1alpha); assay: Irritation markers in vitro: IL-1alpha release of SDS-damaged epidermis models; type: cell-based; settings: for IL-1alpha-Freisetzung: 1 h 0,18% SDS, rinsed, then 24 h topical emulsion (C: 0.1 Gew.-% Triamcinolonacetonid; E: 1 Gew.-% Taurin; B: no further treatment), mean +/- SEM, n=3, unbehandelt 15, Vehikel 387
Description: as §1

[5] = incubation of skin models with Taurin, result in words

SMILES | Cholesterolsulfat (Epidermismodelle [1]; 0,3 mM Taurin for 5 days (t = 5, 17 days culture), % of total lipid content, mean of n = 4 (± SD), without Taurin 0,6) | Cholesterol-ester (Epidermismodelle [1]; 0,3 mM Taurin for 5 days (t = 5, 17 days culture), % of total lipid content, mean of n = 4 (± SD), without Taurin 0,9) | Fettsäuren (Epidermismodelle [1]; 0,3 mM Taurin for 5 days (t = 5, 17 days culture), % of total lipid content, mean of n = 4 (± SD), without Taurin 3,5) | Ceramide (Epidermismodelle [1]; 0,3 mM Taurin for 5 days (t = 5, 17 days culture), % of total lipid content, mean of n = 4 (± SD), without Taurin 7,1) | Cholesterol (Epidermismodelle [1]; 0,3 mM Taurin for 5 days (t = 5, 17 days culture), % of total lipid content, mean of n = 4 (± SD), without Taurin 9,9) | Spiegel an Ceramiden, Cholesterol und freien Fettsäuren (Epidermismodelle [1]; skin models with Taurin, result in words) | epidermale Synthese von Barrierelipiden (Epidermismodelle [1]; skin/epidermis models with Taurin, result in words, differences at t = 5 significant (p<0,05)) | PGE2-Freisetzung (Prostaglandin E2 (PGE2)) | Ausschüttung von Prostaglandin-E2 (Prostaglandin E2 (PGE2); [5]) | LDH-Freisetzung (Epidermismodelle [2]) | Vitalität (Epidermismodelle [2]) | Integrität der Keratinozytenmembran (Epidermismodelle [2]; [5]) | Vitalität der Keratinozyten (Epidermismodelle [2]; [5]) | TEWL "area under the curve", Mittelwert in % (Unbehandelt = 100 %) ([3]; O/W emulsion with 1 Gew.-% Taurin after occlusive 0.75% SDS, twice daily on 5 days, n=18, Vehikel 62,5 %) | transepidermaler Wasserverlust (TEWL), "area under the curve", Mittelwert ([3]; O/W emulsion with 1 Gew.-% Taurin after occlusive 0.75% SDS, twice daily on 5 days, normalised to t0, n=18) [arbitrary units] | Regeneration der Hautbarrierefunktion nach SDS-Schädigung ([3]; application of Taurin, result in words) | transepidermaler Wasserverlust (TEWL) ([3]; topical application of Taurin after repeated SDS treatment of the skin, result in words) | IL-1alpha-Freisetzung [4] [pg/mL] | Ausschüttung von Interleukin-1-alpha [4, 5]
NCCS(=O)(=O)O [Taurin, 2-Aminoethansulfonsäure] | 1,0 (± 0,2) Gew.-% | 1,6 (± 0,2) Gew.-% | 5,7 (± 1,5) Gew.-% | 11.7 (± 1,6) Gew.-% | 11,0 (± 1,2) Gew.-% | in gleichem Ausmaß | in signifikantem Ausmaß die Synthese aller drei Klassen von Barrierelipiden; also recorded: Steigerung der epidermalen Synthese von Barrierelipiden | 0,83 +/- 0,05 ng/ml | nahm die Ausschüttung von Interleukin-1-alpha und von Prostaglandin-E2 ab | 1,30 +/- 0,15 OD 492nm | 82 +/- 2% | stabilisierte sich | verbesserte sich | 30,3% | 881932 | signifikant beschleunigt | senkte den TEWL in signifikantem Ausmaß | 288 ± 37 | nahm die Ausschüttung von Interleukin-1-alpha und von Prostaglandin-E2 ab
CC1(C)O[C@@H]2C[C@H]3[C@@H]4CCC5=CC(=O)C=C[C@]5(C)[C@@]4(F)[C@@H](O)C[C@]3(C)[C@]2(C(=O)CO)O1 [Triamcinolonacetonid, reference compound] | – | – | – | – | – | – | – | 0,30 +/- 0,05 ng/ml | – | 1,19 +/- 0,16 OD 492nm | 86 +/- 8% | – | – | – | – | – | – | 292 ± 26 | –
